Results published in article PMC13352219, “Analysis of glutamine synthetase target‐site mutations and their role in endowing glufosinate‐ammonium resistance” (Pest Management Science, 2026).
Entries after “also recorded” stand apart in the source; their conditions may differ.

How the values were obtained:
[1] = test system: Amaranthus palmeri cytosolic GS1.1 R291S; experiment: GS enzyme inhibition assay, GS1.1 R291S; assay type: biochemical
Experimental: (§1) GS activity was determined spectrophotometrically following the Sigma‐Aldrich enzymatic assay protocol. The reaction couples the ATP‐dependent conversion of L‐glutamate and ammonium to L‐glutamine with pyruvate kinase (PK) and L‐lactate dehydrogenase (LDH), such that oxidation of β‐NADH to β‐NAD^+ can be monitored at 340 nm. Recombinant GS from A. palmeri was expressed in E. coli, purified by affinity chromatography, and quantified by the Bradford method using bovine serum albumin as standard. […] Reaction mixtures were equilibrated to 37°C and initiated by the addition of enzyme, and the decrease in absorbance at 340 nm was recorded for 5–10 min; only the linear portion of the curve was used for activity calculations. […] Activity was calculated using an extinction coefficient for NADH of 6.22 mM^−1 cm^−1 and expressed as units per mg protein, where one unit corresponds to the formation of 1 μmol of L‐glutamine in […] at pH 7.1 and 37 °C. […] Percent inhibition was calculated relative to untreated (positive) and no‐enzyme (negative) controls. […] Resistance factors were calculated by dividing the IC₅₀ of each mutant variant by that of wild‐type GS.

[2] = test system: Amaranthus palmeri cytosolic GS1.1 R311L; experiment: GS enzyme inhibition assay, GS1.1 R311L; assay type: biochemical
Experimental: as §1

[3] = test system: Amaranthus palmeri cytosolic GS1.1 E69L; experiment: GS enzyme inhibition assay, GS1.1 E69L; assay type: biochemical
Experimental: as §1

[4] = test system: Amaranthus palmeri cytosolic GS1.1 G160T; experiment: GS enzyme inhibition assay, GS1.1 G160T; assay type: biochemical
Experimental: as §1

[5] = test system: Amaranthus palmeri cytosolic GS1.1 R34A; experiment: GS enzyme inhibition assay, GS1.1 R34A; assay type: biochemical
Experimental: as §1

[6] = test system: Amaranthus palmeri cytosolic GS1.1 A309L; experiment: GS enzyme inhibition assay, GS1.1 A309L; assay type: biochemical
Experimental: as §1

[7] = test system: Amaranthus palmeri cytosolic GS1.1 G162N; experiment: GS enzyme inhibition assay, GS1.1 G162N; assay type: biochemical
Experimental: as §1

[8] = test system: Amaranthus palmeri cytosolic GS1.1 K165S; experiment: GS enzyme inhibition assay, GS1.1 K165S; assay type: biochemical
Experimental: as §1

[9] = test system: Amaranthus palmeri cytosolic GS1.1 E297Q; experiment: GS enzyme inhibition assay, GS1.1 E297Q; assay type: biochemical
Experimental: as §1

[10] = test system: Amaranthus palmeri cytosolic GS1.1 E192D; experiment: GS enzyme inhibition assay, GS1.1 E192D; assay type: biochemical
Experimental: as §1

[11] = test system: Amaranthus palmeri cytosolic GS1.1 A309Y; experiment: GS enzyme inhibition assay, GS1.1 A309Y; assay type: biochemical
Experimental: as §1

[12] = test system: Amaranthus palmeri cytosolic GS1.1 T60Q; experiment: GS enzyme inhibition assay, GS1.1 T60Q; assay type: biochemical
Experimental: as §1

[13] = test system: Amaranthus palmeri cytosolic GS1.1 R291P; experiment: GS enzyme inhibition assay, GS1.1 R291P; assay type: biochemical
Experimental: as §1

[14] = test system: Arabidopsis thaliana plants expressing Arabidopsis GS2.2 G254D; experiment: Postemergence GFA spray on transgenic Arabidopsis expressing GS2.2 G254D; assay type: in vivo; settings: transgenic Arabidopsis expressing Arabidopsis GS2.2 G254D; 100, 500 and 1000 g ha^−1 postemergence; listed as GFA
From the text: Mutant GS variants G2.2 G255D from A. palmeri and G254D from Arabidopsis were cloned into the RTP6557 transformation vector, which was subsequently introduced into Agrobacterium tumefaciens strain C58C1pMP90. The construct also carried an acetolactate synthase (ALS) herbicide‐resistance gene as a selectable marker, ensuring that Arabidopsis seedlings tested for resistance to GFA herbicide expressed the transgene.
Arabidopsis plants carrying immature floral buds were transformed by the floral‐dip method, immersing inflorescences for 10 s in the bacterial suspension supplemented with Silwet‐L77 at 0.05% v/v. After dipping, plants were maintained overnight under high humidity and low light, then transferred to long‐day conditions until maturity. Once siliques had yellowed, seeds were harvested into paper bags. T₁ seeds were collected, placed into Falcon tubes, and stored at 4 °C.
After ≥14 d of cold storage, T₁ seeds were sown and stratified as previously described. Transgenic plants were confirmed by PCR detection of the AHAS resistance marker gene. […]
Herbicide treatments were applied at the 10‐leaf stage using a spray chamber calibrated to deliver 375 L ha^−1 of spray solution. […] Herbicide efficacy was visually evaluated 7 d after application.

[15] = test system: Amaranthus palmeri GS2.2 G255D; experiment: GS enzyme inhibition assay, GS2.2 G255D; assay type: biochemical; settings: full range of GFA concentrations tested (10^−8 M to 10^−2 M), listed as GFA
Experimental: as §1

[16] = test system: Amaranthus palmeri cytosolic GS1.1 S174E; experiment: GS enzyme inhibition assay, GS1.1 S174E; assay type: biochemical
Experimental: as §1

[17] = test system: Amaranthus palmeri cytosolic GS1.1 R38E; experiment: GS enzyme inhibition assay, GS1.1 R38E; assay type: biochemical
Experimental: as §1

[18] = test system: Amaranthus palmeri cytosolic GS1.1 D56S; experiment: GS enzyme inhibition assay, GS1.1 D56S; assay type: biochemical
Experimental: as §1

[19] = test system: Amaranthus palmeri cytosolic GS1.1 H249N; experiment: GS enzyme inhibition assay, GS1.1 H249N; assay type: biochemical
Experimental: as §1

[20] = read-out: Glufosinate‐ammonium IC50

SMILES: CP(=O)(O)CCC(N)C(=O)O (stereo not drawn) [Glufosinate‐ammonium]
- Glufosinate‐ammonium % Inhibition at saturation 10 000 μM ([1]; 10 000 μM): 0.3%
- IC50 [1, 20]: > 10000 µM
- Glufosinate‐ammonium % Inhibition at saturation 10 000 μM ([2]; 10 000 μM): 14%
- IC50 [2, 20]: > 10000 µM
- Resistance index (RI) ([3]; IC50 variant / IC50 WT): 11.4
- IC50 [3, 20]: 246 µM
- Resistance index (RI) ([4]; IC50 variant / IC50 WT): 18.7
- IC50 [4, 20]: 405 µM
- Resistance index (RI) ([5]; IC50 variant / IC50 WT): 8.4
- IC50 [5, 20]: 182 µM
- Resistance index (RI) ([6]; IC50 variant / IC50 WT): 9.4
- IC50 [6, 20]: 204 µM
- Resistance index (RI) ([7]; IC50 variant / IC50 WT): 22.6
- IC50 [7, 20]: 489 µM
- Resistance index (RI) ([8]; IC50 variant / IC50 WT): 0.3
- IC50 [8, 20]: 7.6 µM
- Resistance index (RI) ([9]; IC50 variant / IC50 WT): 0.0
- IC50 [9, 20]: 0.6 µM
- Glufosinate‐ammonium % Inhibition at saturation 10 000 μM ([10]; 10 000 μM): 0%
- IC50 [10, 20]: > 10000 µM
- Resistance index (RI) ([11]; IC50 variant / IC50 WT): 799.7
- IC50 ([11]; read-out: Glufosinate‐ammonium IC50 (converted)): 17400 µM
- Resistance index (RI) ([12]; IC50 variant / IC50 WT): 16.9
- IC50 [12, 20]: 366 µM
- Glufosinate‐ammonium % Inhibition at saturation 10 000 μM ([13]; 10 000 μM): 0%
- IC50 [13, 20]: > 10000 µM
- tolerance to GFA (visual injury) [14]: failed to confer tolerance; also recorded: sensitive phenotype
- inhibition by GFA [15]: completely insensitive; also recorded: no measurable inhibition; also recorded: no detectable inhibition
- Resistance index (RI) ([16]; IC50 variant / IC50 WT): 0.0
- IC50 [16, 20]: 1 µM
- Resistance index (RI) ([17]; IC50 variant / IC50 WT): 0.2
- IC50 [17, 20]: 4.8 µM
- Resistance index (RI) ([18]; IC50 variant / IC50 WT): 2.6
- IC50 [18, 20]: 56 µM
- Glufosinate‐ammonium % Inhibition at saturation 10 000 μM ([19]; 10 000 μM): 17%
- IC50 [19, 20]: > 10000 µM
